# Test results taken from US12377092B2, “Polycomb inhibitors and uses thereof” (FONDAZIONE ISTITUTO FIRC DI ONCOLOGIA MOLECOLARE (IFOM), priority 2017, dated 2025).
# Read-outs that look alike come from different tables or passages of the source.
# What was measured:
# Format in all cases: cell-based, mouse
# VE-cadherin [1] = experiment: Real time analysis of VE-cadherin transcript, CCM3 knock out cells; settings: PTC209
# Experimental: (§1) RNA extraction was performed both with (A) RNeasy kits (Promega) or (B) RNAeasy Mini Kit (QIAGEN). The latter allows also the extraction of proteins from the same sample. The RNA (500 ng) was reverse transcribed with random hexamers (High Capacity cDNA Archive kits; Applied Biosystems) in a final volume of 30 uL. Reaction were made with a thermocycler (Eppendorf) 10 min at 25° C. followed by 2 hours at 37° C. cDNA (5 ng) was amplified in triplicate in a reaction volume of 15 uL using TaqMan Gene Expression Assays (Applied Biosystems) in a ABI/Prism 7900 HT using a pre PCR step of 10 min at 95° C., followed by 40 cycles of 15 seconds at 95° C. and 60 seconds at 60° C. For each sample, the expression level was determined with the comparative threshold cycle (Ct) method, and normalized to the housekeeping genes encoding 18S, glyceraldehyde-3-phosphate dehydrogenase (GAPDH) and hypoxanthine-guanine phosphoribosyltransferase (hprt1). Ct or threshold cycle, represents the PCR cycle at which an increase in reporter fluorescence above a base-line signal can first be detect.
# Western blot and real time analysis of VE-cadherin were performed in parallel to confirm the reduction of VE-cadherin observed by immunofluorescence (FIG. 8A-C). VE-cadherin protein and transcript levels, as expected, were reduced in CCM3 knock out cells compare to wild type, as already shown (Bravi et al., 2015).
# VE-cadherin [2] = experiment: Western blot analysis of VE-cadherin, CCM3 knock out cells; settings: 72 hours
# Experimental: (§2) Cells were seeded 6.3×10^4 cells/cm^2. The day after, PTC209 and UNC1999 were added to the confluent cells. Drugs were left for one or three days depending on the aim of the experiment. Final concentrations used for the two drugs were: 1 uM PTC209 and 5 uM UNC1999.
# Confluent cells were lysed with boiling modified Laemi sample Buffer (2% SDS, 20% glycerol, and 125 mM Tris-HCl, pH 6.8). Lysates were incubated for 10 minutes at 100° C. to allow proteins denaturation. Protein concentration was estimated using the BCA Protein Assay Kit (Pierce). Equal amount of proteins was loaded on a gel, separated by SDS-PAGE and transferred to a Protran Nitrocellulose Membrane (Whatman) 0.2 um pores. The membranes were blocked for 1 hour at RT in Tris Buffered Saline (TBS: NaCl 150 mM, Tris-HCl 10 mM pH 7.4) plus 0.1% Tween-20 containing 5% BSA or milk. […] Membranes were rinsed three times with TBST for 5 minutes each and specific bindings were detected by enhanced chemiluminescence (ECL) system (Amersham Bioscience) using ChemiDoc XRS gel imaging system (Bio-Rad).
# Experiment with combined PTC209 and UNC1999 treatments was repeated with the same experimental conditions described before and junction organisation was analysed through VE-cadherin staining and protein expression analysis (FIG. 19).
# [3] = tested on: Axin2, Serpin1, Id1, Hes1 and Dll4; experiment: Real-time PCR of target genes of β-catenin, TGFβ and Delta-Notch pathways, wild type and CCM3 knock out cells; settings: PTC209 72 hours
# Experimental: as §1
# To perform these experiments, wild type and CCM3 knock out cells were treated with PTC209 with the same experimental conditions described before, and subsequently lysed for gene expression analysis.
# Axin2 was checked as evidence of β-catenin pathway activation (FIG. 25A), Serpin1 and Id1 for TGFβ signalling (FIG. 25B), while Hes1 and Dll4 for Notch pathway activation (FIG. 25C).
# [4] = tested on: EndMT markers (Klf4, Sca1 and Fsp1); settings: 72 hours
# Experimental: as §2
# Confluent cells were lysed with boiling modified Laemi sample Buffer (2% SDS, 20% glycerol, and 125 mM Tris-HCl, pH 6.8). Lysates were incubated for 10 minutes at 100° C. to allow proteins denaturation. Protein concentration was estimated using the BCA Protein Assay Kit (Pierce). Equal amount of proteins was loaded on a gel, separated by SDS-PAGE and transferred to a Protran Nitrocellulose Membrane (Whatman) 0.2 um pores. The membranes were blocked for 1 hour at RT in Tris Buffered Saline (TBS: NaCl 150 mM, Tris-HCl 10 mM pH 7.4) plus 0.1% Tween-20 containing 5% BSA or milk. The membranes were incubated with primary antibodies diluted in TBST (TBS plus 0.1% Tween-20) containing 5% of either BSA or milk overnight at 4° C. Next, membranes were rinsed three times with TBST for 5 minutes each and incubated for 45 minutes at RT with HRP-linked secondary antibodies diluted in TBST containing 5% BSA/milk. Membranes were rinsed three times with TBST for 5 minutes each and specific bindings were detected by enhanced chemiluminescence (ECL) system (Amersham Bioscience) using ChemiDoc XRS gel imaging system (Bio-Rad).
# [5] = tested on: EndMT markers (Klf4, Sca1 and Fsp1); experiment: RT-PCR of EndMT markers in wild type cells infected with lentivirus expressing LefΔN-β-catΔC; settings: wild type cells infected with 40 ul LefΔN-β-catΔC lentivirus; PTC209 72 hours from nine days after infection
# Experimental: as §1
# One day before infection, 300.000 cells/well were seeded in a 6-wells plate in complete medium as described before.
# The day after 40 uL per well of the concentrated virus was added to the cells medium and leaved overnight at 37° C. […]
# [6] = tested on: EndMT markers (Klf4, Sca1 and Fsp1); settings: 72 hours; remark: listed apart in the source
# Experimental: as §2, §1
# [7] = CCM3 knock out cells (pathological conditions)
# [8] = CCM3 knock out cells (pathological)
# [9] = wild type cells (physiological)
# [10] = wild type cells (physiological condition), CCM1 model
structure (smiles),measurement,setting,value
"COc1cc(Br)c(Nc2nc(-c3c(C)nc4ncccn34)cs2)c(Br)c1 [PTC209, N-(2,6-dibromo-4-methoxyphenyl)-4-(2-methylimidazo[1,2-a]pyrimidin-3-yl)thiazol-2-amine]",VE-cadherin transcript level (real time analysis),VE-cadherin [1],did not rescue
same,VE-cadherin protein expression level (western blot),VE-cadherin [2],did not show any rescue
same,Hes1 transcript (Notch pathway),[3]; [7],downregulated
same,Serpin1 transcript (TGFβ signalling),[3]; [7],upregulated
same,Axin2 transcript (β-catenin pathway),[3]; [8],downregulation
same,Id1 transcript (TGFβ signalling),[3]; [8],downregulation
same,Axin2 transcript (β-catenin pathway),[3]; [9],downregulation
same,Id1 transcript (TGFβ signalling),[3]; [9],downregulation
same,"EndMT markers (Klf4, Sca1, Fsp1) protein levels (western blot)","[4]; CCM1 knock out cells, vs DMSO",strong inhibition
same,Klf4 protein (western blot),[4]; [10],not downregulated
same,Sca1 and Fsp1 upregulation (RT-PCR),[5],strongly reduced
same,Klf4 transcript (real time analysis),[6]; CCM1 knock out cells,downregulated
same,Sca1 and Fsp1 transcripts (real time analysis),[6]; CCM1 knock out cells,downregulated
same,"EndMT markers (Klf4, Sca1, Fsp1) transcript levels (real time analysis)","[6]; CCM1 knock out cells, vs DMSO",strong inhibition
same,Klf4 transcript (real time analysis),[6]; [10],not downregulated
